pKd: −log10 of the molar value.
Key:
[1] = target: DNA gyrase subunit GyrA (Mycobacterium tuberculosis, UniProt P9WG47); assay: SPR; type: binding
[2] = target: DNA gyrase subunit GyrB (Mycobacterium tuberculosis, UniProt P9WG45); assay: SPR; type: binding
Chain of DNA gyrase subunit GyrB (P9WG45 whole entry): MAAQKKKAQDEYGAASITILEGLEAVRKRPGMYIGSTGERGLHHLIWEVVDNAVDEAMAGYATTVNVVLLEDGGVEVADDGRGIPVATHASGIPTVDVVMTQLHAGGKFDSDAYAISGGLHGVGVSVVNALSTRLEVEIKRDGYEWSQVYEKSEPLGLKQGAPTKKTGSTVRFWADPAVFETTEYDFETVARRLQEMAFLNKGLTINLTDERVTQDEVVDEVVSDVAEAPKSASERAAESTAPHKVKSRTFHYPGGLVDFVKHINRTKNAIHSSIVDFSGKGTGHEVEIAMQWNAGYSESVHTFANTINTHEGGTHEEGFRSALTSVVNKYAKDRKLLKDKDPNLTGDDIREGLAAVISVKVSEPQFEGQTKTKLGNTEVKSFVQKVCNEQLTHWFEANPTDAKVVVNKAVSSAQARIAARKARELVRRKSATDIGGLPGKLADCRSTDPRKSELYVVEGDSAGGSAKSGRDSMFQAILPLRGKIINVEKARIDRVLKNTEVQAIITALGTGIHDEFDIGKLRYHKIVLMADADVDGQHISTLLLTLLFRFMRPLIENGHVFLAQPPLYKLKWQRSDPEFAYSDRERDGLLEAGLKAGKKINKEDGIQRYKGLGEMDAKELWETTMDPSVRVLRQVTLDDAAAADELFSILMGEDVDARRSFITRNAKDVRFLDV

Chain of DNA gyrase subunit GyrA (P9WG47 2-838): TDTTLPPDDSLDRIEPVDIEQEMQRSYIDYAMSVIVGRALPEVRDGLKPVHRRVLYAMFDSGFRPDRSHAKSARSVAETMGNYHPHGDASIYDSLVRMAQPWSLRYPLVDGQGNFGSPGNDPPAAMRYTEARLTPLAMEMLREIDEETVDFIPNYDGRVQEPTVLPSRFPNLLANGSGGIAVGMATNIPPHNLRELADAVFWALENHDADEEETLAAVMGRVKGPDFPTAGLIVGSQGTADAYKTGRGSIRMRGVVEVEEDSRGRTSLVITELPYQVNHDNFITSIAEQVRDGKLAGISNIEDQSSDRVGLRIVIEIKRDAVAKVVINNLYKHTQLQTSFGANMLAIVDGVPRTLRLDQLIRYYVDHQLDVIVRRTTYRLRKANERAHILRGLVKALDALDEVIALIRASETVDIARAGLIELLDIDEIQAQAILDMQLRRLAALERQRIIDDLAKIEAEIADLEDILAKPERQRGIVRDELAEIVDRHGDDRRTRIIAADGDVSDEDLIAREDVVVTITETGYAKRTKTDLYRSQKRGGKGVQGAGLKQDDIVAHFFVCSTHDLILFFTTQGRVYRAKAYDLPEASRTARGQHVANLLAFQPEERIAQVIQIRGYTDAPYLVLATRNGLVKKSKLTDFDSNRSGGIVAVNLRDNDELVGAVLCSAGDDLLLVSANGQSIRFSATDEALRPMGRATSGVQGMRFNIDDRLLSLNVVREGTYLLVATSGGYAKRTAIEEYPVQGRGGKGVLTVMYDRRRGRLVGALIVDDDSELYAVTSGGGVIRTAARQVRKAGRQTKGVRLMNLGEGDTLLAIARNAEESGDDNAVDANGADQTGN

Question: How did the pKd [1] turn out when `COc1cccc2c1C(=O)c1c(O)c3c(c(O)c1C2=O)C[C@@](O)(/C(CO)=N/NC(=O)CCCCCN1C(=O)C=CC1=O)C[C@@H]3O[C@H]1C[C@H](N)[C@H](O)[C@H](C)O1` [aldoxorubicin] was run?
Answer: 6.40

Question: What about the pKd [2] of the same compound?
Answer: 6.49

Question: Which results are given for `CN1CCC[C@H]1CCNC(=O)c1cn2c3c(c(N4CCC(c5cnccn5)C4)c(F)cc3c1=O)Oc1cc3ccccc3cc1-2` (stereo partly shown) [quarfloxin]?
Answer: pKd [1]: 5.54; pKd [2]: 4.52

Source: article PMC11684895 (Briefings in Bioinformatics, 2024)
